Measured values: patent publication US20220257722A1, “COMPOSITIONS AND METHODS OF TREATING AND PREVENTING SYSTEMIC COMPLICATIONS OF ACUTE ILLNESS” (United States Government As Represented By The Department …, priority 2019, published 2022)

System: rat small intestine
Test: In vivo small intestinal perfusion: FITC-LPS transport into portal vein and mesenteric lymph during OA/TCA exposure
Conditions: for TDG-related augmentation of FITC-LPS transport into the lymph: L-NAME 0.1 mM perfused or PG97-269 0.3 mg/kg iv before TDG; for inhibitory effect of TDG on FITC-LPS transport into the PV: L-NAME 0.1 mM perfused or PG97-269 0.3 mg/kg iv before TDG 50 μg/kg iv; for AUC0-90 of lymph FITC-LPS compared with the +TDG group / TDG-induced reduction of AUC0-90 PV FITC-LPS / lymph output in TDG-treated rats: L-NAME or PG97-269 before TDG; for AUC0-90 of PV FITC-LPS / AUC0-90 of lymph FITC-LPS: OA/TCA-augmented, 0-90 min; for OA/TCA-induced FITC-LPS transport into the PV: intraduodenal FITC-LPS 50 μg/ml + OA 30 mM/TCA 10 mM, anesthetized rats; for FITC-LPS transport into the lymph: intraduodenal FITC-LPS + OA/TCA
Procedure: In vivo small intestinal perfusion. Intraduodenal perfusions combined with PV and mesenteric lymph cannulation were carried out (1, 48). Under isoflurane anesthesia (2%), the animal was placed supine on a recirculating heating block system (Summit Medical Systems, Bend, Oreg., USA) in order to maintain body temperature at 36-37° C. Prewarmed saline was infused via the right femoral vein at 1.08 ml/h using a Harvard infusion pump (Harvard Apparatus, Holliston, Mass., USA). The abdomen was incised, and the PV was cannulated with a polyethylene (PE)-50 tube attached with 23G needle and fixed by methylacrylate adhesive at the insertion site. The tube was filled with heparinized saline enabling repeated blood sampling. PV samples (0.2 ml each) were collected every 15 min, followed by 0.2 ml flushes with heparinized saline. […] The lymph solution was continuously collected into a 1.5-ml tube every 15 min. A polyethylene tube (diameter 5 mm) filled with PBS was inserted through the forestomach and tied at 0.5 cm caudal from the pyloric ring. After bolus perfusion of 2 ml PBS into the duodenum from the tube, followed by stabilization for ˜30 min, the time was set as t=0 min. FITC-LPS (50 μg/ml) in 2-ml PBS with or without OA (30 mM) and TCA (10 mM) was bolus perfused at t=0 min. In order to maintain lymph flow, 2-ml PBS was perfused every 30 min. PV and lymph samples were collected every 15 min for 90 min. Blood samples were collected in a 0.5-ml tube containing 1 μl each of EDTA (0.5 M), and immediately centrifuged at 5,000 × g for 5 min, after which the plasma was stored at −80° C. until use. The lymph solution was weighed to measure its volume and centrifuged, with the supernatant stored at −80° C. until use. At 90 min, after collection of PV and lymph samples, arterial blood was taken from abdominal aorta for a reference sample, followed by euthanasia by thoracotomy.
The appearance of FITC-LPS into the PV plasma and lymph was assessed by fluorescence measurement using Synergy-2. Fluorescence intensity in the t=0 sample as background was subtracted from the fluorescence values measured in other time point samples. For lymph samples, the FITC-LPS concentration was multiplied by the lymph output in order to calculate total FITC-LPS appearance. FITC-LPS appearance was expressed as PV FITC-LPS content (ng/ml) or FITC-LPS transport into lymph (ng/15 min). Furthermore, total FITC-LPS transport into the PV and lymph was assessed by calculating the area under the curve (AUC) during 0-90 min of FITC-LPS appearance (AUC0-90) using the trapezoidal rule and expressed as AUC0-90 of PV FITC-LPS (μg·min/ml) and AUC0-90 of lymph FITC-LPS (μg).
Intestinal perfusion study: drug treatment. The lipid raft inhibitor MβCD (1 mM), the CD36 inhibitor SSO (1 mM), and PL81 (3%) were added to the initial perfusion of 2-ml PBS at t=−30 min, followed by their addition to the luminal FITC-LPS/OA/TCA solution at t=0 min.
Effect of TDG on intestinal LPS transport. The stable, DPP4-resistant analog of GLP-2, TDG (13) was used to examine the acute effect of GLP-2 on LPS transport into PV and mesenteric lymph in vivo. TDG (50 μg/kg) was bolus injected iv 15 min before the luminal FITC-LPS/OA/TCA perfusion (at t=−15 min). L-NAME was added to the first perfusion of 2 ml PBS (at t=−30 min). PG97-269 (0.3 mg/kg) was bolus injected iv 20 min before the luminal FITC-LPS/OA/TCA perfusion (at t=−20 min).

Compound	TDG-related augmentation of FITC-LPS transport into the lymph	inhibitory effect of TDG on FITC-LPS transport into the PV	AUC0-90 of lymph FITC-LPS compared with the +TDG group	TDG-induced reduction of AUC0-90 PV FITC-LPS	lymph output in TDG-treated rats	AUC0-90 of PV FITC-LPS	AUC0-90 of lymph FITC-LPS	OA/TCA-induced FITC-LPS transport into the PV	FITC-LPS transport into the lymph	lymphatic output (t=0-30 min, TDG 50 μg/kg iv at t=-15 min vs non-pretreated controls)
COC(=O)[C@@H](N)CCCNC(=N)N[N+](=O)[O-] [L-NAME, Nω-nitro-L-arginine methyl ester]	inhibited	reduced	reduced	reversed	reduced	–	–	–	–	–
CCCCCCCC/C=C\CCCCCCCC(=O)ON1C(=O)CC(S(=O)(=O)O)C1=O (centres unmarked) [SSO, sulfosuccinimidyl oleate]	–	–	–	–	–	failed to affect	no effect	inhibited	no effect	–
CC[C@H](C)[C@H](NC(=O)[C@H](Cc1ccccc1)NC(=O)[C@H](CC(=O)O)NC(=O)[C@H](CCCNC(=N)N)NC(=O)[C@H](C)NC(=O)[C@H](C)NC(=O)[C@H](CC(C)C)NC(=O)[C@H](CC(N)=O)NC(=O)[C@H](CC(=O)O)NC(=O)[C@H](CC(C)C)NC(=O)[C@@H](NC(=O)[C@@H](NC(=O)[C@H](CC(N)=O)NC(=O)[C@H](CCSC)NC(=O)[C@H](CCC(=O)O)NC(=O)[C@H](CC(=O)O)NC(=O)[C@H](CO)NC(=O)[C@H](Cc1ccccc1)NC(=O)[C@H](CO)NC(=O)CNC(=O)[C@H](CC(=O)O)NC(=O)CNC(=O)[C@@H](N)Cc1c[nH]cn1)[C@@H](C)O)[C@@H](C)CC)C(=O)N[C@@H](CC(N)=O)C(=O)N[C@@H](Cc1c[nH]c2ccccc12)C(=O)N[C@@H](CC(C)C)C(=O)N[C@H](C(=O)N[C@@H](CCC(N)=O)C(=O)N[C@H](C(=O)N[C@@H](CCCCN)C(=O)N[C@H](C(=O)N[C@H](C(=O)N[C@@H](CC(=O)O)C(=O)O)[C@@H](C)O)[C@@H](C)CC)[C@@H](C)O)[C@@H](C)CC [TDG]	–	–	–	–	–	reduced	no significant effect	abolished	rapidly increased	rapid increase
[Ac-His^1, D-Phe^2, Lys^15, Arg^16, Leu^27]-VIP(1-7)-GRF(8-27) (HFDAVFTNSYRKVLKRLSARKLLQDIL; HELM PEPTIDE1{[ac].H.[dF].D.A.V.F.T.N.S.Y.R.K.V.L.K.R.L.S.A.R.K.L.L.Q.D.I.L.[am]}$$$$V2.0; SMILES CC[C@H](C)[C@H](NC(=O)[C@H](CC(=O)O)NC(=O)[C@H](CCC(N)=O)NC(=O)[C@H](CC(C)C)NC(=O)[C@H](CC(C)C)NC(=O)[C@H](CCCCN)NC(=O)[C@H](CCCNC(=N)N)NC(=O)[C@H](C)NC(=O)[C@H](CO)NC(=O)[C@H](CC(C)C)NC(=O)[C@H](CCCNC(=N)N)NC(=O)[C@H](CCCCN)NC(=O)[C@H](CC(C)C)NC(=O)[C@@H](NC(=O)[C@H](CCCCN)NC(=O)[C@H](CCCNC(=N)N)NC(=O)[C@H](Cc1ccc(O)cc1)NC(=O)[C@H](CO)NC(=O)[C@H](CC(N)=O)NC(=O)[C@@H](NC(=O)[C@H](Cc1ccccc1)NC(=O)[C@@H](NC(=O)[C@H](C)NC(=O)[C@H](CC(=O)O)NC(=O)[C@@H](Cc1ccccc1)NC(=O)[C@H](Cc1c[nH]cn1)NC(C)=O)C(C)C)[C@@H](C)O)C(C)C)C(=O)N[C@@H](CC(C)C)C(N)=O) [PG97-269]	inhibited	no effect	reduced	no effect	reduced	–	–	–	–	–
methyl-β-cyclodextrin [MβCD]	–	–	–	–	–	abolished	no effect	abolished	no effect	–
